Marks after values point to notes of the source that are not given here.
System: golden apple snail (Pomacea canaliculata (Lamarck))
Experiment: Hurting rate and death rate of golden apple snails on SDS-added paper mat round boards on wet paddy soil in Petri dishes
Format: in vivo
Conditions: for Death Rate (%) / Hurting Rate (%): average after three days, paper mat
Experimental: The glutinous solutions with different SDS densities (100, 500, 1000, 2000, 5000, 7500, and 10000 ppm) are prepared in advance, and the paper mat made by YUEN FOONG YU PAPER MFG Co., Ltd is also cut into many round boards having a diameter of 9 cm.
The test is done by the following steps. At first, each of the round boards is dripped with 2 ml of one of the glutinous solutions respectively. The round boards are dried in an oven at a temperature of 30° C. Then, the soil taken from the paddy field is added with water to simulate the natural environment. Each of the dried SDS-added round boards is bedded on 50 g of the wet soil in a Petri dish respectively. Finally, each of the dishes is added with 10 ml water and put 10 golden apple snails thereon.
Two other groups are prepared for comparison. […] All the three groups are observed in a greenhouse.

[1] = Conc. of SDS solution 100 ppm, snail size 3.28 ± 0.43 g/per snail
[2] = Conc. of SDS solution 500 ppm, snail size 3.28 ± 0.43 g/per snail
[3] = Conc. of SDS solution 1000 ppm, snail size 3.28 ± 0.43 g/per snail
[4] = Conc. of SDS solution 2500 ppm, snail size 0.82 ± 0.26 g/per snail
[5] = Conc. of SDS solution 5000 ppm, snail size 0.82 ± 0.26 g/per snail
[6] = Conc. of SDS solution 7500 ppm, snail size 0.82 ± 0.26 g/per snail
[7] = Conc. of SDS solution 10000 ppm, snail size 0.82 ± 0.26 g/per snail

## CCCCCCCCCCCCOS(=O)(=O)[O-].[Na+] [SDS, sodium dodecyl sulfate]
[1]
  Death Rate (%): 0.00%
  Hurting Rate (%): 3.33* %
[2]
  Death Rate (%): 3.33%
  Hurting Rate (%): 6.67%
[3]
  Death Rate (%): 10.00%
  Hurting Rate (%): 23.33%
Conc. of SDS solution 2000 ppm, snail size 3.28 ± 0.43 g/per snail
  Death Rate (%): 10.00%
[4]
  Death Rate (%): 100.00%
  Hurting Rate (%): 100.00* %
[5]
  Death Rate (%): 100.00%
  Hurting Rate (%): 100.00%
[6]
  Death Rate (%): 100.00%
  Hurting Rate (%): 100.00%
[7]
  Death Rate (%): 100.00%
  Hurting Rate (%): 100.00%
Smaller snails, SDS concentrations above 2500 ppm (summary of Table 2)
  hurting rate: ~100.00%
